# Test system: recombinant guanylate cyclase reporter cell line
# Assay: Effect on a recombinant guanylate cyclase reporter cell line
# Assay type: cell-based
# Conditions: in some cases mean values from individual determinations, read-out: MEC (minimum effective concentration)
# Experimental: B-2. Effect on a Recombinant Guanylate Cyclase Reporter Cell Line
# The cellular activity of the compounds according to the invention is determined using a recombinant guanylate cyclase reporter cell line, as described in F. Wunder et al., Anal. Biochem. 339, 104-112 (2005).
# Representative MEC values (MEC=minimum effective concentration) for the compounds of the invention are shown in the table below (in some cases as mean values from individual determinations): […]
compound,measurement,value
"Cc1cc(OCc2c(F)cccc2F)n2nc(C)c(-c3cccc(C(N)=O)c3)c2c1 [Example 12, 3-{7-[(2,6-Difluorobenzyl)oxy]-2,5-dimethylpyrazolo[1,5-a]pyridin-3-yl}benzamide]",minimal effective concentration,0.055 µM

# Reference: patent US10174021B2, “Substituted pyrazolo[1,5-A]pyridines and their use” (BAYER PHARMA AKTIENGESELLSCHAFT, priority 2014, dated 2019)
